Data on one molecule can be found in US11845747B2, “Ester and carbonate pyrimidine compounds as JAK kinase inhibitors” (priority 2019, dated 2023).

One data set can be described thus: physchem. Format: physicochemical. The conditions noted are these: thermodynamic from solid. The protocol:
Assay 5: Solubility Assay in Organic Excipients The purpose of this assay was to quantify the solubility of test compounds in different organic excipients such as diisopropyl adipate, medium chain triglycerides (MCT), propylene glycol, and polyethylene glycol. The assay required 80 μL of 100 mM DMSO test compound solution per desired excipient in addition to 40 μL required to make a test standard. For example, to test a compound in all five […]) of 100 mM DMSO compound stock solution was required. The standard was created by diluting 40 μL of 100 mM DMSO compound stock solution into 160 μL of methanol and was shaken for five minutes to ensure solution uniformity. […] This 20,000 μM solution was run on an Agilent 1260 LC-MS system by injecting 0.2 μL in order to obtain the peak area. For the test solutions, 80 μL of 100 mM DMSO compound stock solution, per excipient, were dried down into a powder overnight. Once in powder form, 400 μL of the desired excipient was added to the powder and allowed to shake vigorously for four hours. The maximum theoretical concentration for this sample solution was 20,000 μM. After four hours of shaking, the samples were centrifuged for 10 minutes at 3,000 RPM before injecting 0.2 μL on the same Agilent 1260 LC-MS system to obtain the peak area. […] In Table 3 below, A represents a value above 10, B represents a value between 5 and 10, C represents a value below 5.

In another data set the target is T1, Tyk2 (Homo sapiens, UniProt P29597).
T1 construct: GST; purchased Life Technologies
T1 sequence (P29597 whole entry): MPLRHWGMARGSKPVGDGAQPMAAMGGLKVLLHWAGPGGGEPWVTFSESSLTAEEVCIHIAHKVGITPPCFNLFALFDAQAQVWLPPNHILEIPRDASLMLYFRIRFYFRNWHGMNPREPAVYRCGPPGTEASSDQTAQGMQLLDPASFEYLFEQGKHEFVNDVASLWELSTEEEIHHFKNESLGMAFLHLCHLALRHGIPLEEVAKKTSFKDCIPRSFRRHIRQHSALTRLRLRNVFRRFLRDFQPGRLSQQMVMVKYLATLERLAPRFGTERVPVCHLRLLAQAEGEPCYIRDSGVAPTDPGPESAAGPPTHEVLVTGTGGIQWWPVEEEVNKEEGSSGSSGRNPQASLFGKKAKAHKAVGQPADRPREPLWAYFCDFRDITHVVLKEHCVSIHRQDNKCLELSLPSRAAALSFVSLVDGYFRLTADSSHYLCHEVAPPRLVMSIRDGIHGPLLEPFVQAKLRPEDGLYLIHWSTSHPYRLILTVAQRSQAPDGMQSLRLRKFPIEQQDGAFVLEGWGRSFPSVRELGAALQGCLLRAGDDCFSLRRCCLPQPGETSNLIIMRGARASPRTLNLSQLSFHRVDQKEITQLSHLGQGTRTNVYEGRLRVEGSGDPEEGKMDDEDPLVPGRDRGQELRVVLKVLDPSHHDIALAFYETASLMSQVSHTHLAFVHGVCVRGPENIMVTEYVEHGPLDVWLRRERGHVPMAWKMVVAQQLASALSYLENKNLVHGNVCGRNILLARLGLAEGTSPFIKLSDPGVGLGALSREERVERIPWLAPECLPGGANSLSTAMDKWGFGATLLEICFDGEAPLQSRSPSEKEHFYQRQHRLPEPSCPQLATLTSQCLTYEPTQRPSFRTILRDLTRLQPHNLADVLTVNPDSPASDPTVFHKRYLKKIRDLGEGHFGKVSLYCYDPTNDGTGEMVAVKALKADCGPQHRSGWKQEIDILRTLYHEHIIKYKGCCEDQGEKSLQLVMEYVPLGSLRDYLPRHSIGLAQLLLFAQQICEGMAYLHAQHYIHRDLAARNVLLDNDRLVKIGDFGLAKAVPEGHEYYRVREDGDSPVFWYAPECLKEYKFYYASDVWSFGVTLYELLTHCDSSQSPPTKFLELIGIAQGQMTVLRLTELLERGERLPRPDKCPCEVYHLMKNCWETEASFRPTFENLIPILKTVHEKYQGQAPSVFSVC
Put plainly: Biochemical LanthaScreen Tyk2 kinase assay. The conditions noted are these: Km ATP 10 μM; pKi from pIC50 by Cheng-Prusoff; read-out: Tyk 2 (pKi) (converted). How it is done:
Assay 1: Biochemical JAK and Tyk2 Kinase Assays A panel of four LanthaScreen JAK biochemical assays (JAK1, 2, 3 and Tyk2) were carried in a common kinase reaction buffer (50 mM HEPES, pH 7.5, 0.01% Brij-35, 10 mM MgCl2, and 1 mM EGTA). Recombinant GST-tagged JAK enzymes and a GFP-tagged STAT1 peptide substrate were obtained from Life Technologies. Serially or discretely diluted compounds were pre-incubated with each of the four JAK enzymes and the substrate in white 384-well microplates (Corning) at ambient temperature for 1 h. ATP was subsequently added to initiate the kinase reactions in 10 μL total volume, with 1% DMSO. […] Kinase reactions were allowed to proceed for 1 hour at ambient temperature before a 10 μL preparation of EDTA (10 mM final concentration) and Tb-anti-pSTAT1 ([…]) antibody (Life Technologies, 2 nM final concentration) in TR-FRET dilution buffer (Life Technologies) was added. The plates were allowed to incubate at ambient temperature for 1 h before being read on the EnVision reader (Perkin Elmer). Emission ratio signals (520 nm/495 nm) were recorded and utilized to calculate the percent inhibition values based on DMSO and background controls. For dose-response analysis, percent inhibition data were plotted vs. compound concentrations, and IC50 values were determined from a 4-parameter robust fit model with the Prism software (GraphPad Software). Results were expressed as pIC50 (negative logarithm of IC50) and subsequently converted to pKi (negative logarithm of dissociation constant, Ki) using the Cheng-Prusoff equation.
(In general: In TR-FRET formats the signal depends on donor and acceptor labels being close together.)

Data set [1] relates to IL-2 stimulated STAT5 phosphorylation in Tall-1 human T cell line (JAK1/3). As to the kind of experiment: Inhibition of IL-2 stimulated pSTAT5 in Tall-1 T cells. It counts as cell-based. Particulars: IL-2 300 ng/mL, AlphaLisa, read-out: Tall-1 IL2 pSTAT5 (pIC50) (converted). How it is done: Assay 2: Inhibition of IL-2 Stimulated pSTAT5 in Tall-1 T Cells
The potency of test compounds for inhibition of interleukin-2 (IL-2) stimulated STATS phosphorylation was measured in the Tall-1 human T cell line (DSMZ) using AlphaLisa. Because IL-2 signals through JAK1/3, this assay provides a measure of JAK1/3 cellular potency.
Phosphorylated STAT5 was measured via the AlphaLISA SureFire Ultra pSTAT5 (Tyr694/699) kit (PerkinElmer). Human T cells from the Tall-1 cell line were cultured in a 37° C., 5% CO2 humidified incubator in RPMI (Life Technologies) supplemented with 15% Heat Inactivated Fetal Bovine Serum (FBS, Life Technologies), 2 mM Glutamax (Life Technologies), 25 mM HEPES (Life Technologies) and 1× Pen/Strep (Life Technologies). Compounds were serially diluted in DMSO and dispensed acoustically to empty wells. Assay media (phenol red-free DMEM (Life Technologies) supplemented with 10% FBS (ATCC)) was dispensed (4 μL/well) and plates shaken at 900 rpm for 10 mins. Cells were seeded at 45,000 cells/well in assay media (4 μL/well), and incubated at 37° C., 5% CO2 for 1 hour, followed by the addition of IL-2 (R&D Systems; final concentration 300 ng/mL) in pre-warmed assay media (4 μL) for 30 minutes. After cytokine stimulation, cells were lysed with 6 ul of 3× AlphaLisa Lysis Buffer (PerkinElmer) containing 1× PhosStop and Complete tablets (Roche). The lysate was shaken at 900 rpm for 10 minutes at room temperature (RT). Phosphorylated STAT5 was measured via the pSTAT5 AlphaLisa kit (PerkinElmer). Freshly prepared acceptor bead mixture was dispensed onto lysate (5 μL) under green filtered <100 lux light. Plates were shaken at 900 rpm for 2 mins, briefly spun down, and incubated for 2 hrs at RT in the dark. Donor beads were dispensed (5 μL) under green filtered <100 lux light. Plates were shaken at 900 rpm for 2 minutes, briefly spun down, and incubated overnight at RT in the dark. Luminescence was measured with excitation at 689 nm and emission at 570 nm using an EnVision plate r reader (PerkinElmer) under green filtered <100 lux light.
To determine the inhibitory potency of test compounds in response to IL-2, the average emission intensity of beads bound to pSTAT5 was measured in a human T cell line. IC50 values were determined from analysis of the inhibition curves of signal intensity versus compound concentration. Data are expressed as pIC50 (negative decadic logarithm IC50) values (mean±standard deviation).
In general terms: In Alpha technology, singlet oxygen from a donor bead excites a nearby acceptor bead.

For orientation: solubility means the dissolved amount per volume that the medium holds. Regarding `CCS(=O)(=O)N1[C@@H]2CCC[C@H]1C[C@H](N(C)c1nc(CO)c(F)c(Nc3cc(C)[nH]n3)n1)C2` [Compound M, (2-(((1R,3s,5S)-9-(ethylsulfonyl)-9-azabicyclo[3.3.1]nonan-3-yl)(methyl)amino)-5-fluoro-6-((5-methyl-1H-pyrazol-3-yl)amino)pyrimidin-4-yl)methanol], the solubility at 4 h was less than 5000 µg/mL in the data set “physchem” (oil or lipid, Solubility in MCT); less than 5000 µg/mL in the data set “physchem” (organic solvent or mixture, Solubility in Diisopropyl adipate); less than 5000 µg/mL in “physchem” (organic solvent or mixture, Solubility in PEG400); less than 5000 µg/mL in “physchem” (organic solvent or mixture, Solubility in Propylene glycol); greater than 10000 µg/mL in “physchem” (organic solvent or mixture, Solubility in Transcutol). Further, the Ki on Tyk2 is 0.1 to 1 nM. The IC50 in data set [1] was no more than 10 nM.
